pIC50: −log10 of the molar value.
Test system: NCI-H295R
Assay: IC50 (antiproliferative, ATP content)
Conditions: 48 h
Procedure, shortened: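 Cell viability of adrenocortical carcinoma cells was assessed as ATP by CellTiter-Glo luminescence. Cells at 1500 per well in 1536-well plates, in serum-free DMEM with ITS, received compounds by pin transfer at 8 final concentrations (0.6 nM–46 µM) after overnight culture and were then held 48 h at 37 °C, 5% CO2. IC50 was calculated by logistic fitting against vehicle and positive-control wells, compounds with no concentration response being recorded as above the top dose.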

Structure (SMILES)	pIC50
CC(=O)O[C@H]1C[C@@]2(C)[C@@H](C[C@@H](O)[C@H]3[C@@]4(C)CC[C@@H](O)[C@@H](C)[C@@H]4CC[C@@]32C)/C1=C(\CCC=C(C)C)C(=O)[O-].[Na+]	< 4.34
C#C[C@]1(O)CC[C@H]2[C@@H]3CCC4=CC(=O)CC[C@@H]4[C@H]3CC[C@@]21CC	< 4.34
CC(C)c1c(CN(C)C(C)Cc2ccccc2)n(C)n(-c2ccccc2)c1=O (centres undefined)	< 4.34
C[C@@H](O)[C@H]1C(=O)N2C(C(=O)O)=C(S[C@@H]3CN[C@H](CNS(N)(=O)=O)C3)[C@H](C)[C@H]12	< 4.34
CC(C)(C)OC(=O)c1ncn2c1[C@@H]1CCCN1C(=O)c1c(Br)cccc1-2	< 4.34
COc1ccc2c(c1OC)C(=O)O[C@H]2[C@@H]1c2cc3c(cc2CCN1C)OCO3	< 4.34
CCOCC(O)COc1ccc(NC(=O)CC[S+](C)C)cc1.Cc1ccc(S(=O)(=O)[O-])cc1 (centres undefined)	< 4.34
O=[N+]([O-])c1ccc(F)c([N+](=O)[O-])c1	< 4.34
CCCCOC(=O)c1ccc(N)cc1	< 4.34
O=C(O)/C=C\C(=O)O.c1ccc2nc(N3CCNCC3)ccc2c1	< 4.34
C=CCN1CC[C@]23CCCC[C@H]2[C@H]1Cc1ccc(O)cc13	< 4.34
NS(=O)(=O)c1cc2c(cc1C(F)(F)F)NCNS2(=O)=O	< 4.34
Nc1nc(N)nc(NC2CC2)n1	< 4.34
CCCCC(CC)COC(=O)C=Cc1ccc(OC)cc1 (centres undefined)	< 4.34
COc1ccccc1OCC(O)COC(N)=O (centres undefined)	< 4.34
O=C(O)C1=CC2=C(C=CC=C2)C(CC3=C(O)C(C(O)=O)=CC4=C3C=CC=C4)=C1O.O=C([C@H](NC([C@@H](NC([C@@H](NC([C@@H](NC([C@@H](N[C@]([C@@H](N%11)CCC%11=O)=O)CC%10=CNC=N%10)=O)CC8=CNC9=CC=CC=C89)=O)CO)=O)CC7=CC=C(C=C7)O)=O)CC5=CNC6=CC=CC=C56)N[C@H](C(N[C@H](C(N%12CCC[C@@H]%12[C@@](NCC(N)=O)=O)=O)CCCNC(N)=N)=O)CC(C)C	< 4.34
O=C2N1[C@]([C@@]([H])2NC(C(CC)OC3=CC=CC=C3)=O)([H])SC(C)(C)[C@@H]1[C@@](O)=O (some centres undefined)	< 4.34
C[C@](N)(Cc1ccc(O)cc1)C(=O)O	< 4.34
CCCN(CCC)CCc1cccc2c1CC(=O)N2	< 4.34
NC(=O)c1cccnc1	< 4.34
Cc1cc(O)cc2c1O[C@](C)(CCC[C@H](C)CCC[C@H](C)CCCC(C)C)CC2	< 4.34
CN(C)c1ccc(O)c2c1C[C@H]1C[C@H]3[C@H](N(C)C)C(O)=C(C(N)=O)C(=O)[C@@]3(O)C(O)=C1C2=O.Cl	< 4.34

Structure (SMILES)	pIC50
S=C(S)N1CCNCC1	< 4.34
O=[C@](OCC2=C(F)C(F)=CC(F)=C2F)[C@H]1C(C)(C)[C@@H]1/C=C(Cl)/Cl	< 4.34
CCC1(CC)C(=O)C=CNC1=O	< 4.34
CCCC(C)C1(CC)C(=O)N=C([S-])NC1=O.[Na+] (centres undefined)	< 4.34
CCCCCCCCCCCC(=O)N(CCO)CCO	< 4.34
CC(=O)Oc1cccc(C)c1	< 4.34
O=C(O)C(Cl)(Cl)Cl	< 4.34
OCCN(CCO)c1nc(N2CCCCC2)c2nc(N(CCO)CCO)nc(N3CCCCC3)c2n1	< 4.34
CC[C@H](C)C(=O)O[C@H]1CCC=C2C=C[C@H](C)[C@H](CC[C@@H]3C[C@@H](O)CC(=O)O3)[C@H]21	< 4.34
C[C@@H](Cc1ccccc1)N(C)C	< 4.34
O.O.Oc1cc(O)cc(O)c1	< 4.34
C[C@@H]1[C@H](O)[C@@H](C)/C=C/C=C/C=C/C=C/C=C/C=C/C=C/[C@H](O[C@@H]2O[C@H](C)[C@@H](O)[C@H](N)[C@@H]2O)C[C@@H]2O[C@](O)(C[C@@H](O)C[C@@H](O)[C@H](O)CC[C@@H](O)C[C@@H](O)CC(=O)O[C@H]1C)C[C@H](O)[C@H]2C(=O)O	< 4.34
CC(=O)N(CC(O)CN(C(C)=O)c1c(I)c(C(=O)NCC(O)CO)c(I)c(C(=O)NCC(O)CO)c1I)c1c(I)c(C(=O)NCC(O)CO)c(I)c(C(=O)NCC(O)CO)c1I (centres undefined)	< 4.34
CC(C)(C)NCC(O)COc1cccc2c1CCC(=O)N2.Cl (centres undefined)	< 4.34
O=c1[n-]c2[nH]c(=O)[nH]c(=O)c2[nH]1.[Na+]	< 4.34
O=[C@](OCC2=COC(CC3=CC=CC=C3)=C2)[C@H]1C(C)(C)[C@@H]1\C=C(C)/C	< 4.34
CCC(=O)OCC(=O)[C@@]1(OC(=O)CC)[C@H](C)C[C@H]2[C@H]3[C@H]([C@@H](O)C[C@@]21C)[C@@]1(C)C=CC(=O)C=C1C[C@H]3Cl	< 4.34
CN1C[C@@H](NS(=O)(=O)N(C)C)C[C@@H]2c3cccc4c3c(cn4C)C[C@H]21	< 4.34
CCN(CC)CCOC(=O)C(C)(c1ccccc1)c1ccccc1	< 4.34
O=C2N1[C@]([C@@]([H])2NC(CC3=CC=CC=C3)=O)([H])SC(C)(C)[C@@H]1[C@@](O)=O.O=C5N4[C@]([C@@]([H])5NC(CC6=CC=CC=C6)=O)([H])SC(C)(C)[C@@H]4[C@@](O)=O.C7(CNCCNCC8=CC=CC=C8)=CC=CC=C7	< 4.34
CN1CCN(C2=Nc3ccccc3Oc3ccc(Cl)cc32)CC1.O=C(O)CCC(=O)O	< 4.34
CCNCC(O)c1cccc(O)c1.Cl (centres undefined)	< 4.34

Continued, values first:

pIC50	Structure (SMILES)
< 4.34	CC(C)NC[C@@H](O)COc1cccc2ccccc12
< 4.34	CC(C(=O)O)c1ccc(CC2CCCC2=O)cc1 (centres undefined)
< 4.34	O=C([O-])COc1nn(Cc2ccccc2)c2ccccc12.[Na+]
< 4.34	COc1ccc(CN(CCN(C)C)c2ncccn2)cc1.Cl
< 4.34	Clc1ccc2c(c1)C(N1CCNCC1)=Nc1ccccc1O2
< 4.34	Cl.OC(CCN1CCCC1)(c1ccccc1)C1CCCCC1 (centres undefined)
< 4.34	Cl.Cl.NCCNc1cccc2ccccc12
< 4.34	CNCCCC1c2ccccc2C=Cc2ccccc21.Cl
< 4.34	CN(C)CCC(O)(c1ccccc1)c1ccccc1Cl (centres undefined)
< 4.34	OCc1ccccc1O
< 4.34	CC(=O)Oc1cccc2c1C(=O)c1c(OC(C)=O)cc(C(=O)O)cc1C2=O
< 4.34	Cc1nc[nH]c1CN1CCc2c(c3ccccc3n2C)C1=O.Cl
< 4.34	Cc1ccccn1
< 4.34	CCN(CC)S(=O)(=O)c1ccc(C(=O)O)cc1
< 4.34	O=C1NS(=O)(=O)c2ccccc21
< 4.34	CCCc1ncc(C[n+]2ccccc2C)c(N)n1.Cl.[Cl-]
< 4.34	CC(C)N1CCN(c2ccc(OC[C@H]3COC(Cn4cncn4)(c4ccc(Cl)cc4Cl)O3)cc2)CC1 (some centres undefined)
< 4.34	O=C(O)Cc1csc(-c2ccc(Cl)cc2)n1
< 4.34	Clc1ccc(C(Cn2ccnc2)OCc2c(Cl)cccc2Cl)c(Cl)c1 (centres undefined)
< 4.34	CN(C)CC\C2=C\Nc1ccc(cc12)Cn3cncn3
< 4.34	OC(=O)[C@@H](C(C)C)N(Cc1ccc(cc1)c2ccccc2C\3=N\N=N/N/3)C(=O)CCCC
< 4.34	Nc1ccc(S(=O)(=O)Nc2ccccn2)cc1
< 4.34	C(=Cc1ccccc1)CN1CCN(C(c2ccccc2)c2ccccc2)CC1
< 4.34	CCOC(CN1CCN(CC(C)C(=O)c2ccccc2)CC1)c1ccccc1.Cl.Cl (centres undefined)
< 4.34	NS(=O)(=O)c1cc(C(=O)O)cc(N2CCCC2)c1Oc1ccccc1

— the supplement of paper PMC3493320
